# Measured values taken from paper PMC11811631 (RSC Chemical Biology, 2025).
# Target: ScoE (Streptomyces coeruleorubidus, UniProt A0A3B6UEU3)
# Experiment: LC-MS of pyrazole product […] after tetrazine derivatization
# Type: biochemical
Structure (SMILES),LC-MS of pyrazole product 8 after tetrazine derivatization (accepted chain length),LC-MS of pyrazole product 8 after tetrazine derivatization (preferred chain length)
"CCCC(CC(=O)O)NCC(=O)O (centres unmarked) [6 (n = 3), 6 with a propyl group]","substrates that have a short alkyl chain, e.g., a methyl and propyl group",–
"CC(CC(=O)O)NCC(=O)O (centres unmarked) [6 (n = 1), methyl-6]",–,"substrates that have a short alkyl chain, e.g., a methyl and propyl group"
